Laboratory results from patent US5466815A, “Tetrazole derivatives of bile acids, and their use as lipid level lowering medicaments” (Hoechst Aktiengesellschaft, priority 1993, dated 1995).

Biological target: T1, intestinal bile acid transportation system (Na^+ -dependent) in brush border membrane vesicles of the ileum (Oryctolagus cuniculus, UniProt Q28727)
T1 construct: Brush border membrane vesicles were prepared from the intestinal cells of the small intestine; from tissue; host or cells: brush border membrane vesicles from the terminal 7/10 of the small intestine (ileum) of male New Zealand rabbits
T1 sequence (Q28727 1-347): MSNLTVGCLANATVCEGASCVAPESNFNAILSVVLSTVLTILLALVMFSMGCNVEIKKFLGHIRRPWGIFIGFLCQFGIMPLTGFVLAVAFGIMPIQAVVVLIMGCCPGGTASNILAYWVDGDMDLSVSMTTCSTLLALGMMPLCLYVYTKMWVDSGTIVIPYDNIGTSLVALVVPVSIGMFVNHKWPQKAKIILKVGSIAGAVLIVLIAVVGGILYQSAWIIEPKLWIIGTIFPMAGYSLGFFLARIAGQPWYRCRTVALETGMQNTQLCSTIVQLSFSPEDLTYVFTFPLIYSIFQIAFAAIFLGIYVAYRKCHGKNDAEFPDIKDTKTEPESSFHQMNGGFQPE
Assay: Inhibition of [^3 H]-taurocholate uptake in brush border membrane vesicles of the ileum of rabbits
Type: biochemical, rabbit
Conditions: 50 μM taurocholate, usually 1 minute; for IC50Na TCDC / IC50Na -substance: quotient of IC50Na of reference taurochenodeoxycholate (TCDC) and IC50Na of test substance, Na^+ -dependent transportation content (Na-T-B minus K-T-B); for IC50 -TCDC / IC50 -substance: quotient of IC50 of reference taurochenodeoxycholate (TCDC) and IC50 of test substance, [^3 H]-taurocholate uptake
Procedure: The compounds according to the invention were tested biologically by determination of the inhibition of [^3 H]-taurocholate uptake in brush border membrane vesicles of the ileum of rabbits. The inhibition test was carried out as follows:
1. Preparation of Brush Border Membrane Vesicles from the Ileum of Rabbits
Brush border membrane vesicles were prepared from the intestinal cells of the small intestine by the so-called Mg^2+ precipitation method. Male New Zealand rabbits (2 to 2.5 kg bodyweight) were sacrificed by intravenous injection of 0.5 ml of an aqueous solution of 2.5 mg Tetracain HCl, 100 T61^R and 25 mg of mebezonium iodide. The small intestine was rinsed with ice-cold physiological saline solution. The terminal […] of the small intestine (measured in the oral-rectal direction, i.e. the terminal ileum, which contains the active Na^+ -dependent bile acid transportation system) was used for preparation of the brush border membrane vesicles. The intestines were frozen in plastic bags under nitrogen at -80° C. For preparation of the membrane vesicles, the frozen intestines were […] at 30° C. in a water-bath. The mucosa was scraped off and suspended in 60 ml of ice-cold 12 mM Tris/HCl buffer (pH 7.1)/300 mM mannitol, 5 mM EGTA/10 mg/l of phenylmethylsulfonylfluoride/1 mg/l of trypsin inhibitor for soya beans (32 U/mg)/0.5 mg/l of trypsin inhibitor from bovine lung (193 U/mg)/5 mg/l of bacitracin. After dilution to 300 ml with ice-cold distilled water, the mixture was homogenized with an Ultraturrax (18-rod, IKA Werk Staufen, FRG) for 3 minutes at 75 % of the maximum power, while cooling with ice. After addition of 3 ml of 1M MgCl2 solution (final concentration 10 mM), the mixture was left to stand at 0° C. for exactly 1 minute. By addition of Mg^2+, the cell membranes aggregate and precipitate, with the exception of the brush border membranes. After centrifugation at 3000×g (5000 revolutions per minute, SS-34 rotor) for 15 minutes, the precipitate is discarded and the supernatant, which contains the brush border membranes, was centrifuged at […] (15000 revolutions per minute, SS-34 rotor) for 30 minutes. The supernatant was discarded and the precipitate was rehomogenized in 60 ml of 12 mM tris/HCl buffer (pH 7.1)/60 mM mannitol, 5 mM EGTA using a Potter Elvejhem homogenizer (Braun, Melsungen, 900 revolutions per minute, 10 strokes). After addition of 0.1 ml of 1M MgCl2 solution and an incubation time of 15 minutes at 0° C., the mixture was centrifuged again at 3000×g for 15 minutes. The supernatatant was then centrifuged again at 46000×g (15000 revolutions per minute, SS-34 rotor) for 30 minutes. The precipitate was taken up in 30 ml of 10 mM Tris/Hepes buffer (pH 7.4)/300 mM mannitol and resuspended homogeneously by 20 strokes in a Potter Elvejhem homogenizer at 1000 revolutions per minute. After centrifugation at 48000×g (20000 revolutions per minute, SS-34 rotor) for 30 minutes, the precipitate was taken up in 0.5 to 2 ml of Tris/Hepes buffer (pH 7.4)/280 mM mannitol (final concentration 20 mg/ml) and resuspended with the aid of a tuberculin syringe with a 27 gauge needle. The vesicles were either used for transportation studies immediately after preparation or stored at -196° C. in 4 mg portions in liquid nitrogen.
2. Inhibition of the Na^+ -dependent [^3 H]-taurocholate Uptake in the Brush Border Membrane Vesicles of the Ileum
The uptake of substrates into the brush border membrane vesicles described above was determined by means of the so-called membrane filtration technique. 10 μl of the vesicle suspension (100 μg of protein) were pipetted as drops onto the wall of a polystyrene incubation tube (11×70 mm) which contained the incubation medium with the corresponding ligands (90 μl). […]

SMILES	IC50Na TCDC / IC50Na -substance	IC50 -TCDC / IC50 -substance
C[C@H](Cc1nn[nH]n1)[C@H]1CC[C@H]2[C@@H]3[C@H](O)C[C@@H]4C[C@H](O)CC[C@]4(C)[C@H]3C[C@H](O)[C@]12C [Example 4]	0.38	0.28
CC(CCCc1nn[nH]n1)C1CCC2C3C(O)CC4CC(O)CCC4(C)C3CC(O)C12C (centres unmarked) [Example 14]	1.35	1.20
C[C@H](CCCc1nn[nH]n1)[C@H]1CC[C@H]2[C@@H]3[C@H](O)C[C@@H]4C[C@@H](OCCO)CC[C@]4(C)[C@H]3C[C@H](O)[C@]12C [Example 16]	0.25	0.26
C[C@H](CCC(=O)N[C@H]1CC[C@@]2(C)[C@@H](C1)C[C@@H](O)[C@@H]1[C@@H]2C[C@H](O)[C@]2(C)[C@@H]([C@H](C)CCC(=O)Nc3nn[nH]n3)CC[C@@H]12)[C@H]1CC[C@H]2[C@@H]3[C@H](O)C[C@@H]4C[C@H](O)CC[C@]4(C)[C@H]3C[C@H](O)[C@]12C [Example 22]	1.35	1.66
C[C@H](CCC(=O)Nc1nn[nH]n1)[C@H]1CC[C@H]2[C@@H]3[C@H](O)C[C@@H]4C[C@H](O)CC[C@]4(C)[C@H]3C[C@H](O)[C@]12C [Example 24]	1.27	0.97
C[C@H](CCC(=O)NCCO[C@H]1CC[C@@]2(C)[C@@H](C1)C[C@@H](O)[C@@H]1[C@@H]2C[C@H](O)[C@]2(C)[C@@H]([C@H](C)CCCc3nn[nH]n3)CC[C@@H]12)[C@H]1CC[C@H]2[C@@H]3[C@@H](O)C[C@@H]4C[C@H](O)CC[C@]4(C)[C@H]3CC[C@]12C [Example 27]	0.25	0.26
C[C@H](CCC(=O)NCc1nn[nH]n1)[C@H]1CC[C@H]2[C@@H]3[C@H](O)C[C@@H]4C[C@H](O)CC[C@]4(C)[C@H]3C[C@H](O)[C@]12C [Example 29]	0.48	0.46
